The target in one assay is T1, human CYP11B2 enzyme (Homo sapiens, UniProt P19099).
T1 construct: the ORF of human CYP11B1 or CYP11B2 were transfected into G402 cells; expressed in transfected cells
T1 sequence (P19099 25-503): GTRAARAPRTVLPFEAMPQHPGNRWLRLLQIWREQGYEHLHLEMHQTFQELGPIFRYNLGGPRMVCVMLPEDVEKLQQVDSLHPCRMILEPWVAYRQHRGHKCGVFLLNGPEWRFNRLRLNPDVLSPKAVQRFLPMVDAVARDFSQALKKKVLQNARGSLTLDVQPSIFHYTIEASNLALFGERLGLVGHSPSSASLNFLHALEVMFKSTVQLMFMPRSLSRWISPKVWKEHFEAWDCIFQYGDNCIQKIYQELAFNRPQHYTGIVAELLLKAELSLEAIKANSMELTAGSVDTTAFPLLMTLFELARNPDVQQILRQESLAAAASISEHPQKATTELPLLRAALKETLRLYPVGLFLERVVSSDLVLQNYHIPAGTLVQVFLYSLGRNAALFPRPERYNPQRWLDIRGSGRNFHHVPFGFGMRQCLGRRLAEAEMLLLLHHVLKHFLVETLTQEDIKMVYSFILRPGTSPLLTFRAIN
The experiment in a line: Enzyme inhibition activity assay in G402 cells stably expressing human CYP11B2 (aldosterone production from 11-DOC, LC/MS). In kind it is cell-based. The note with it: 1 µM 11-DOC, 16 hours, aldosterone detected. From the text: (§1) G402 cells (ATCC, CRL 1440) are epithelioid cells isolated from the kidney of a patient with renal failure and are a type of leiomyoblastoma. For the screening of highly specific CYP11B2 inhibitors, we specifically used G402 cell lines stably expressing human CYP11B2 enzyme or human CYP11B1 enzyme for experimental development.
(§2) Construction of Stably Transfected Cell Lines: Expression plasmids containing suitable promoters, suitable drug resistance markers, and the ORF of human CYP11B1 or CYP11B2 were transfected into G402 cells using standard techniques. The cells were then screened using the specific puromycin resistance marker. Monoclonal cells stably expressing human CYP11B2 were selected for expansion, and 11-deoxycorticosterone (11-DOC) was used as the specific substrate to evaluate enzyme activity based on aldosterone production. Monoclonal cells stably expressing human CYP11B1 were selected for expansion, and 11-deoxycortisol (11-DC) was used as the specific substrate, with cortisol production as the detection target for specific enzyme activity evaluation. The G402 cell lines stably expressing CYP11B1/CYP11B2 were cultured at 37 °C, 5% CO2, 95% air in complete medium (McCoy's 5A + 10% FBS + 1% PS + 0.5 µg/mL puromycin).
(§3) Enzyme Inhibition Activity Assay: CYP11B1 G402/CYP11B2 G402 cells were spread out flatly in cell culture plates. After 24 hours, the medium was changed to an enzyme testing system (DMEM/F12 + 2.5% charcoal-stripped FCS). Small molecule inhibitors at various concentrations were added. After 1 hour, appropriate concentrations of specific substrates (1 µM 11-DOC / 1 µM 11-DC) were added and co-incubated with the cells for 16 hours. Cells were then collected, and specific products were detected using LC/MS methods with an AB SCIEX TRIPLE QUAD 5500+, CTO-40S instrument (CYP11B2 enzyme detecting aldosterone; CYP11B1 enzyme detecting cortisol).
(§4) The IC50 values of the compounds were determined based on the G402 testing system. The dose-dependent inhibition of enzyme activity was calculated by plotting the added inhibitor concentration (x-axis) against the percentage of product inhibitory activity relative to the control group (y-axis) based on product formation at various compound concentrations. The following data were then fitted using the least squares method with XLfit 5.5.0 for a four-parameter logistic curve fit: [formula] • Y-axis: Percentage of product inhibitory activity relative to the control group; • logIC50: IC50 was determined using XLFit.
(§5) The maximum enzyme activity corresponds to the amount of control product steroid/aldosterone in the absence of inhibitor, set as 100%. The minimum enzyme activity corresponds to the amount of reference control product steroid/aldosterone in the presence of inhibitor. Table 3 Inhibitory Activity of the Compounds of the Present Disclosure on CYP11B2 and CYP11B1

A further assay addresses T2, human CYP11B1 enzyme (Homo sapiens, UniProt P15538).
T2 construct: the ORF of human CYP11B1 or CYP11B2 were transfected into G402 cells; expressed in transfected cells
T2 sequence (P15538 25-503): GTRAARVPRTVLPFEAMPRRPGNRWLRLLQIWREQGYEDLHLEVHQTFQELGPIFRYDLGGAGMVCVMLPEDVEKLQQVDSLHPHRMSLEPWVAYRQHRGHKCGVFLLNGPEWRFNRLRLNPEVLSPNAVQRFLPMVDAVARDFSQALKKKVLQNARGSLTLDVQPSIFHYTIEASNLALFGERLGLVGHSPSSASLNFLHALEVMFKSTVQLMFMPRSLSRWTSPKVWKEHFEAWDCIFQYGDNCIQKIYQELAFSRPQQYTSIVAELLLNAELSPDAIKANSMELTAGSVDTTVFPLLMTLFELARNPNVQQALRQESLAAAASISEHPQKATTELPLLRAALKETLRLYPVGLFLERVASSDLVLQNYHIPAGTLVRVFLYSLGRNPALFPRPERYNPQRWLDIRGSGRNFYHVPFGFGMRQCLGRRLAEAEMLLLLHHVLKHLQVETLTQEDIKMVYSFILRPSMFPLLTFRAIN
The experiment in a line: Enzyme inhibition activity assay in G402 cells stably expressing human CYP11B1 (cortisol production from 11-DC, LC/MS). In kind it is cell-based. The following applies: 1 µM 11-DC, 16 hours, cortisol detected.
Description: as §1, §2, §3, §4, §5

For `CCC(=O)N[C@@H]1COCc2c(-c3ccc4c(c3)CCC(=O)N4C)cncc21` [Compound A01], it took 0.0417 µM to reach half-maximal inhibition at human CYP11B2 enzyme (IC50).

With `[2H]C([2H])([2H])OC(=O)N[C@@H]1CCOc2c(-c3ccc4c(c3)cc(C#N)n4C)cncc21` [Compound A36], the IC50 was 0.136 µM against human CYP11B1 enzyme and 0.0013 µM on human CYP11B2 enzyme.

At human CYP11B2 enzyme, `CCC(=O)N[C@@H]1CCCc2c(-c3ccc4c(c3)CC(=O)N4C)cncc21` [Compound C24] returned an IC50 of 0.0242 µM. For the compound `CCC(=O)N[C@@H]1CCCc2c(-c3ccc4c(c3)CCCC(=O)N4C)cncc21` [Compound C15], the IC50 against human CYP11B1 enzyme was found to be 2.55 µM; on human CYP11B2 enzyme it was 0.0245 µM. On to `CN1C(=O)CCc2cc(-c3cncc4c3CCC[C@H]4N3CCOC3=O)ccc21` [Compound D12], for which the figures for the IC50 against human CYP11B1 enzyme and on human CYP11B2 enzyme were 0.362 µM and 0.0073 µM, respectively.

For `COC(=O)N[C@@H]1CCCc2c(-c3cc(Cl)c4c(ccc(=O)n4C)c3)cncc21` [Compound A51], the values for the half-inhibitory concentration (IC50) at human CYP11B1 enzyme and against human CYP11B2 enzyme were 0.625 µM and 0.0044 µM, respectively. The compound `CCC(=O)NC1CCCc2c(-c3cnc4c(c3)CCCN4C(N)=O)cncc21` (stereo not drawn) [Compound C02] gave an IC50 against human CYP11B2 enzyme of 0.0169 µM. As to `CNC(=O)N[C@@H]1CCCc2c(-c3ccc4c(c3)COC(=O)N4C)cncc21` [Compound A34], the figures for the IC50 at human CYP11B1 enzyme and against human CYP11B2 enzyme were 0.294 µM and 0.0075 µM, respectively. `[2H]C([2H])([2H])OC(=O)N[C@@H]1CCCc2c(-c3ccc4c(c3)COC(=O)N4C)cncc21` [Compound A28]: the IC50 against human CYP11B1 enzyme was determined as 0.111 µM; on human CYP11B2 enzyme, 0.0036 µM. The corresponding values for `CCC(=O)N[C@@H]1CCCc2c(-c3ccc4c(c3)cc(C#N)n4C)cncc21` [Compound C36] are 0.266 µM and 0.0014 µM.

Compound `[2H]C([2H])([2H])NC(=O)N[C@@H]1CCCc2c(-c3ccc4c(ccc(=O)n4C)c3)cncc21` [Compound A15] came in with a 50% inhibitory concentration (IC50) against human CYP11B2 enzyme of 0.0099 µM. Turning to `CNC(=O)N[C@@H]1CCOc2c(-c3ccc4c(c3)cc(C#N)n4C)cncc21` [Compound A37], the IC50 at human CYP11B1 enzyme worked out at 0.311 µM; at human CYP11B2 enzyme it was 0.0025 µM. The corresponding values for `CCC(=O)N[C@@H]1CCCc2c(-c3cc(Cl)c4c(ccc(=O)n4C)c3)cncc21` [Compound C42] are 4.03 µM and 0.0111 µM. The corresponding values for `CCC(=O)N[C@@H]1CC=Cc2c(-c3ccc4c(c3)CCC(=O)N4C)cncc21` [Compound A04-P1] are 0.244 µM and 0.0056 µM.

In turn, `[2H]C([2H])([2H])NC(=O)N[C@@H]1CCOc2c(-c3ccc4c(ccc(=O)n4C)c3)cncc21` [Compound A17] registered an IC50 on human CYP11B2 enzyme of 0.0231 µM. As for `[2H]C([2H])([2H])N(C(=O)N[C@@H]1CCCc2c(-c3ccc4c(c3)CCC(=O)N4C)cncc21)C([2H])([2H])[2H]` [Compound D16], the values for the IC50 against human CYP11B1 enzyme and at human CYP11B2 enzyme were 1.23 µM and 0.0195 µM, respectively. The corresponding values for `[2H]C([2H])([2H])NC(=O)N[C@@H]1CCOc2c(-c3ccc4c(c3)CCC(=O)N4C)cncc21` [Compound A11] are 1.26 µM and 0.0073 µM. In the case of `CCNC(=O)N[C@@H]1CCCc2c(-c3ccc4c(c3)CCC(=O)N4C)cncc21` [Compound D09], on human CYP11B2 enzyme, 0.0282 µM corresponded to half-maximal inhibition (IC50).

As to `CNC(=O)N[C@@H]1CCCc2c(-c3ccc4c(c3)CCC(=O)N4C)cncc21` [Compound D01], the IC50 on human CYP11B2 enzyme turned out to be 0.0059 µM. Regarding `COC(=O)N[C@@H]1CCOc2c(-c3ccc4c(c3)CCC(=O)N4C)cncc21` [Compound A14], the IC50 on human CYP11B1 enzyme came out at 0.202 µM; against human CYP11B2 enzyme, 0.0023 µM. The corresponding values for `[2H]C([2H])([2H])OC(=O)N[C@@H]1CCCc2c(-c3ccc4c(c3)OCC(=O)N4C)cncc21` [Compound A29] are 0.479 µM and 0.0088 µM.

On to `COC(=O)N[C@@H]1CCOc2c(-c3cc(Cl)c4c(ccc(=O)n4C)c3)cncc21` [Compound A53], for which the IC50 came out at 2.01 µM at human CYP11B1 enzyme and 0.0131 µM on human CYP11B2 enzyme. The corresponding values for `CCC(=O)N[C@@H]1CCCc2c(-c3ccc4c(ccc(=O)n4C)c3)cncc21` [Compound C04] are 2.5 µM and 0.0192 µM.

In the case of `CN1C(=O)CCc2cc(-c3cncc4c3CCC[C@H]4NC(=O)N3CCC3)ccc21` [Compound D17], half-maximal inhibition against human CYP11B2 enzyme (IC50) required 0.0333 µM. As for `[2H]C([2H])([2H])OC(=O)N[C@@H]1CCOc2c(-c3ccc4c(c3)COC(=O)N4C)cncc21` [Compound A40], the 50% inhibitory concentration (IC50) on human CYP11B1 enzyme stood at 0.487 µM; on human CYP11B2 enzyme, 0.0061 µM. The corresponding values for `CCC(=O)N[C@@H]1CCCc2c(-c3ccc4c(c3)OCC(=O)N4C)cncc21` [Compound C09] are 3.85 µM and 0.031 µM. As to `C[C@@H](F)C(=O)N[C@@H]1CCCc2c(-c3ccc4c(c3)CCC(=O)N4C)cncc21` [Compound D07-P1], the IC50 against human CYP11B2 enzyme amounted to 0.0339 µM. Same read-out and setting: for `CCC(=O)N[C@@H]1CCCc2c(-c3ccc4c(ccc(=O)n4C)c3F)cncc21` [Compound C45] the value was 0.033 µM; for `CCC(=O)N[C@@H]1CCCc2c(-c3ccc4c(ccc(=O)n4C(F)F)c3)cncc21` [Compound C33], 0.0327 µM. Same read-out and setting: the value for `[2H]C([2H])([2H])OC(=O)N[C@@H]1CCOc2c(-c3ccc4c(c3)OCC(=O)N4C)cncc21` [Compound A41] was 0.0289 µM; that for `COC(=O)N[C@@H]1CCCc2c(-c3ccc4c(c3)CCC(=O)N4C)cncc21` [Compound D05] was 0.0034 µM; that for `CCC(=O)N[C@@H]1CCCc2c(-c3ccc4c(cnn4C)c3)cncc21` [Compound C21] was 0.0265 µM. In the case of `CN1C(=O)CCc2cc(-c3cncc4c3CCC[C@H]4N3CCCC3=O)ccc21` [Compound D03], it took 0.0081 µM to reach half-maximal inhibition on human CYP11B2 enzyme (IC50). The compound `CN1C(=O)CCc2cc(-c3cncc4c3CCC[C@H]4N3CCC4(CC4)C3=O)ccc21` [Compound D14] returned an IC50 against human CYP11B2 enzyme of 0.013 µM. For `CCC(=O)N[C@@H]1CCOc2c(-c3ccc4c(c3)OCC(=O)N4C)cncc21` [Compound A19], half-maximal inhibition against human CYP11B2 enzyme (IC50) required 0.0355 µM. Turning to `CCC(=O)N[C@@H]1CCOc2c(-c3cc(F)c4c(c3)cc(C#N)n4C)cncc21` [Compound A55], at human CYP11B2 enzyme, 0.0045 µM corresponded to half-maximal inhibition (IC50). As to `CCC(=O)N[C@@H]1CCOc2c(-c3cc(Cl)c4c(c3)cc(C#N)n4C)cncc21` [Compound A56], half-maximal inhibition on human CYP11B2 enzyme (IC50) required 0.0116 µM. On human CYP11B2 enzyme, `COC(=O)N[C@@H]1CCOc2c(-c3ccc4c(c3)OCC(=O)N4C)cncc21` [Compound A44] had an IC50 of 0.0219 µM. At human CYP11B2 enzyme, `CCC(=O)N[C@@H]1CCOc2c(-c3cc(F)c4c(ccc(=O)n4C)c3)cncc21` [Compound A20] registered an IC50 of 0.0291 µM. The compound `[2H]C([2H])([2H])NC(=O)N[C@@H]1CCOc2c(-c3ccc4c(c3)OCC(=O)N4C)cncc21` [Compound A32] registered a half-inhibitory concentration (IC50) on human CYP11B2 enzyme of 0.0347 µM. Still for that read-out and setting: for `CN(C)C(=O)N[C@@H]1CCCc2c(-c3ccc4c(c3)OCC(=O)N4C)cncc21` [Compound A26] the value was 0.019 µM; for `CCC(=O)N[C@@H]1CCCc2c(-c3ccc4c(c3)cc(F)c(=O)n4C)cncc21` [Compound C16], 0.0433 µM.

The record behind these values is patent EP4806899A1, “FUSED RING DERIVATIVE, PREPARATION METHOD THEREFOR AND USE THEREOF IN MEDICINE” (Shanghai Qilu Pharmaceutical Research and Development …, priority 2023, dated 2025).
